{"source": "paper PMC2699117", "about": "“Drug Discovery Using Chemical Systems Biology: Repositioning the Safe Medicine Comtan to Treat Multi-Drug and Extensively Drug Resistant Tuberculosis” (PLoS Computational Biology, 2009)", "target": "T1, InhA (enoyl-acyl carrier protein reductase) (Mycobacterium tuberculosis, UniProt P9WGR1)", "T1 construct": "wild-type InhA", "T1 sequence (P9WGR1 whole entry, looked up)": "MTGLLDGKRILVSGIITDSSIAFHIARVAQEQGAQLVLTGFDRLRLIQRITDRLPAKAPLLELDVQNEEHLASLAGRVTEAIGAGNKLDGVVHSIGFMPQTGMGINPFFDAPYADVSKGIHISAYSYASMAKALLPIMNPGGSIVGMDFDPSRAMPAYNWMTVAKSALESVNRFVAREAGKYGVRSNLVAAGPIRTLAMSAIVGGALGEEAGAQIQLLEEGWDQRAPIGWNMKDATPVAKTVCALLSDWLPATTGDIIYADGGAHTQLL", "experiment": "biochemical", "data": [{"smiles": "CCN(CC)C(=O)/C(C#N)=C/c1cc(O)c(O)c([N+](=O)[O-])c1", "note": "[entacapone]", "values": [{"measurement": "IC50", "result": "79 ± 10", "unit": "µM"}]}]}
